Consider two molecules from patent publication US8772348B2, “Materials and methods for pest control” (priority 2009, dated 2014).

Series [1] deals with Field-collected Musca domestica. The protocol: Briefly, one Musca domestica strain is collected from the University of Florida dairy unit in Alachua County, Florida, U.S.A. (“the Alachua strain”). The other Musca domestica strain is collected from a dairy farm in Gilchrist County, Florida, U.S.A. (“the Gilchrist strain”). Both strains are colonized adults, and are subsequently reared at 27° C. in the laboratory of the Entomology and Nematology Department, University of Florida.
The positive control is exposed to serial dilutions of permethrin. The negative control is not exposed to any chemical compound. 1 mL of insecticide was dissolved in acetone (concentrations between 0.5 and 20 mg mL^−1) in a 60 mL glass jar having a 67.86 cm^2 inside surface area (Wheaton, Millville, N.J.). Jars were allowed to dry for 1 h prior to fly introduction. Flies were held in jars for 2, 4 and 24 h, and fly mortality rate was scored at that time. Sugar water (10%) was provided in all assays, unless stated otherwise. The mortality rate is measured after a 2-hour, 4-hour, and 24-hour period. Ataxic flies are considered dead. The mortality rate and the LC values are determined using the same procedures as is illustrated in Example 2.

The subject of series [2] is Susceptible Musca domestica. In words: Contact bioassay of emulsified concentrate formulations on filter paper discs. The settings on record: EC formulation on filter paper. The protocol: A commercially-available permethrin 57 g L^−1 EC (Ectiban EC 57; Universal Cooperatives, Minneapolis, Minn.) was included for comparison. Except rosalva, the 50% EC semiochemical formulations were generated by combining 500 mL AI, 430 mL canola oil (Publix, Lakeland, Fla.), 10 mL xylene, 50 mL Triton X-100 (Acros Organics Nev., Fair Lawn, N.J.) and 10 mL Agsolex-8 (International Specialty Products, Wayne, N.J.). The rosalva formulation contained all of the above-mentioned ingredients, with canola oil concentration reduced to 400 mL L^−1, Triton X-100 concentration increased to 75 mL L^−1, and 5 mL L^−1 Antifoam B silicone emulsion (Mallinckrodt Baker, Phillipsburg, N.Y.) included.
Briefly, Whatman No. 1 filter paper discs (63.58 cm^2) are impregnated with 1.5 ml serially diluted formulations in 20 emulsified concentrates and 50 emulsified concentrates, respectively, and subsequently dried for about an hour. Then, house flies are divided into seven sets: three sets as the experiment, three sets as the positive control, and one set as the negative control. Each set consists of twenty six-to-ten-day old adult flies. […] The positive control set is exposed to paper discs impregnated with geranyl acetone, rosalva or citronellol. The negative control set is exposed to paper discs impregnated with acetone solution. Throughout the exposure periods, each set is provided with 10% sucrose solution and sufficient air circulation. Ataxic flies are considered dead. The mortality rate and the LC values are determined using the same procedures as is illustrated in Example 2.

Series [3] deals with Aedes aegypti. The note with it: for LC50: On camouflage military fabric. The method, then:
The mortality rate is measured after a 2-hour, 4-hour and 24-hour exposure period. Ataxic mosquitoes are considered dead.
The ability of Ae. aegypti to recover from insecticidal exposure is also investigated. After a 2-hour exposure, each set of Ae. aegypti is transferred into a separate jar. The mortality rate is measured at two time intervals: first, immediately at the transfer (2 hours after the initial exposure), and second, 22 hours after the transfer (24 hours after the initial exposure).
The mortality rate and the LC values are determined using the same procedures as is illustrated in Example 2.

The subject of series [4] is Field-collected Musca domestica. The settings on record: for % mortality: formulation on plywood panels, 3.33 mg/cm^2 (footnote 1.67). The method, then:
Briefly, one Musca domestica strain and one other Musca domestica strain are obtained as is illustrated in Example 3. Each fly strain is divided into seven sets: three sets as the experiment, three sets as the positive control, and one set as the negative control. Flies are assayed on unpainted plywood panel boards that have been previously exposed to natural summer weather conditions for at least 10 days. […] The formulation is applied at a uniform rate of 7.5 ml per 225 cm^2, sufficient to cover the entire panel without dripping. Subsequently, the treated panel boards are dried for about an hour.
In each set, 20 adult flies are placed onto panel boards. Flies are secured with wooden embroidery hoops, covered with a coarse mesh screen cloth previously sprayed with the respective formulation. After 4 hours, flies are transferred into a clean jar. The mortality rate is measured 24 hours after the transfer, and is determined using the same procedures as are illustrated in Example 2.
Plywood panels (225 cm^2) were treated with chemicals at a rate of 1.67 mg cm^−2. Panels were treated on day 0 and was held until exposure on post-treatment day. Mosquitoes were exposed to chemicals for 2 h, and mortality rate was assessed 24 h after initial exposure. Control contained formulation ingredients without semiochemicals.

Series [5] has as its system Aedes aegypti. The note with it: for % mortality on various days following treatment: formulation on military fabric at LC99-based concentration, 2 h exposure, mortality 24 h after initial exposure. The protocol:
Briefly, after mosquitoes are exposed to formulations for 2 hours at a concentration of LC99, each set is transferred into a separate glass jar, and held for another 24 hours. The mortality rate is measured with new mosquitoes on post-treatment days 2, 3, 5, 8 and 14 (Day 1 starts at 24 hours after the transfer), and is determined using the same procedures as are illustrated in Example 2.
Concentrations were generated from technical-based LC99 values obtained from a 2 h exposure period on military fabric. Fabric was treated on day 0 and was held until exposure on post-treatment day. Mosquitoes were exposed for 2 h, and mortality rate was assessed 24 h after initial exposure. Control contained formulation ingredients without semiochemicals.

Series [6] deals with Anopheles quadrimaculatus. The note with it: for mortality at the 24-hour examination: 24-hour exposure. From the text: (§1) Briefly, Anopheles quadrimaculatus (Say) is obtained from the United States Department of Agriculture, ARS, Center for Medical, Agricultural and Veterinary Entomology, Gainesville, Fla., and adults are held in the laboratory of the Entomology and Nematology Department, University of Florida with no insecticide exposure or introduction of other insects. The Asian tiger mosquito, Ae. albopictus (Skuse) is obtained from a laboratory colony of the Entomology and Nematology Department, University of Florida.
(§2) Each strain is divided into four sets: three sets as the experiment and the other set as the control. […] The mortality rate is measured after a 2-hour, 4-hour, and 24-hour exposure period. Ataxic mosquitoes are considered dead. The mortality rate and the LC values are determined using the same procedures as is illustrated in Example 2.

Another series concerns Aedes albopictus. The settings on record: for mortality at the 24-hour examination: 24-hour exposure.
Description: as §1, §2

Setting [7] is: Alachua strain, 2 h constant exposure.
Setting [8] is: Alachua strain, 4 h constant exposure.
Where [9] appears, read: Alachua strain, 24 h constant exposure.
The mark [10] stands for this setting: Gilchrist strain, 2 h constant exposure.
The mark [11] stands for this setting: Gilchrist strain, 4 h constant exposure.
Setting [12] is: Gilchrist strain, 24 h constant exposure.

Like-named read-outs stand apart in the source and are kept apart here.

As for `C/C=C/C(=O)C1=C(C)CCCC1(C)C` [Beta damascone, beta damascone], the LC90 was determined as 136.39 μg cm^−2 in series [1] (setting [7]); 124.69 μg cm^−2 in series [1] (setting [8]); 47.00 μg cm^−2 in series [1] (setting [9]); 126.00 μg cm^−2 in series [1] (setting [10]); 70.59 μg cm^−2 in series [1] (setting [11]); 56.21 μg cm^−2 in series [1] (setting [12]). The LC90 in series [2] (24 h constant exposure) is given as 618.12 μg cm^−2; in series [2] (48 h constant exposure), 516.16 μg cm^−2. Besides, the mortality rate with Aedes aegypti [3] (in vivo) was roughly 100%; in series [4] (in vivo), 95.0-100.0%; in the series with Aedes aegypti [5] (in vivo) it was “above 90%”. Also, the “mortality at the 24-hour examination” value (in series [6]; in the series with Aedes albopictus) was “All mosquitoes were dead” each time.
As to `CC1(C)CCCC2=C1CC(C=O)CC2` (centres unmarked) [Cyclemone A, 2-naphthaldehyde, 1,2,3,4,5,6,7,8-octahydro-8,8-dimethyl], the LC50 was found to be 54.46 μg cm^−2 in series [1] (setting [7]); 52.60 μg cm^−2 in series [1] (setting [8]); 32.29 μg cm^−2 in series [1] (setting [9]); 54.11 μg cm^−2 in series [1] (setting [10]); 46.52 μg cm^−2 in series [1] (setting [11]); 32.32 μg cm^−2 in series [1] (setting [12]). Also, the LC50 is given as 468.96 μg cm^−2 in series [2] (24 h constant exposure); 440.04 μg cm^−2 in series [2] (48 h constant exposure); 26.03 μg cm^−2 with Aedes aegypti [3] (2 h constant exposure); 41.13 μg cm^−2 in the series with Aedes aegypti [3] (2 h exposure then transferred, mortality 24 h after initial exposure); 17.23 μg cm^−2 in the series on Aedes aegypti [3] (4 h constant exposure); 14.29 μg cm^−2 in series [6] (2 h constant exposure). Moreover, the LC50 in series [6] (4 h constant exposure) was 12.27 μg cm^−2; in the series with Aedes albopictus (2 h constant exposure), 19.88 μg cm^−2; in the series on Aedes albopictus (4 h constant exposure), 18.72 μg cm^−2. The LC90 in series [1] (setting [7]) is 74.41 μg cm^−2; in series [1] (setting [8]) it was 69.96 μg cm^−2; in series [1] (setting [9]), 51.09 μg cm^−2; in series [1] (setting [10]) it was 72.60 μg cm^−2; in series [1] (setting [11]), 79.28 μg cm^−2; in series [1] (setting [12]), 51.58 μg cm^−2. Besides, the LC90 worked out at 759.00 μg cm^−2 in series [2] (24 h constant exposure) and 659.92 μg cm^−2 in series [2] (48 h constant exposure). In the series on Aedes aegypti [3] (camouflage military fabric, after a 24-hour exposure), this molecule yielded a mortality rate of roughly 100%. For the same molecule, the entries for the “% mortality” value in series [4] (Alachua strain) and in series [4] (Gilchrist strain) were 100.00a % and 95.00a %, respectively. For the same molecule, the “% mortality on various days following treatment” value in the series on Aedes aegypti [5] (day 1) came to 100.00a %; in the series with Aedes aegypti [5] (day 2), 97.50a %; in the series with Aedes aegypti [5] (day 3), 92.50a %; in the series with Aedes aegypti [5] (day 5) it was 75.00a %; in the series with Aedes aegypti [5] (day 8), 25.50ab %; with Aedes aegypti [5] (day 14) it was 17.50a %. For the same molecule, the “mortality at the 24-hour examination” value (in series [6]; in the series with Aedes albopictus) was “All mosquitoes were dead” each time.
